Assay type in all cases: cell-based; call rule not given here
Experiment [1] deals with T1, P2X purinoceptor 7 (Homo sapiens, UniProt Q99572).
T1 sequence (Q99572 whole entry): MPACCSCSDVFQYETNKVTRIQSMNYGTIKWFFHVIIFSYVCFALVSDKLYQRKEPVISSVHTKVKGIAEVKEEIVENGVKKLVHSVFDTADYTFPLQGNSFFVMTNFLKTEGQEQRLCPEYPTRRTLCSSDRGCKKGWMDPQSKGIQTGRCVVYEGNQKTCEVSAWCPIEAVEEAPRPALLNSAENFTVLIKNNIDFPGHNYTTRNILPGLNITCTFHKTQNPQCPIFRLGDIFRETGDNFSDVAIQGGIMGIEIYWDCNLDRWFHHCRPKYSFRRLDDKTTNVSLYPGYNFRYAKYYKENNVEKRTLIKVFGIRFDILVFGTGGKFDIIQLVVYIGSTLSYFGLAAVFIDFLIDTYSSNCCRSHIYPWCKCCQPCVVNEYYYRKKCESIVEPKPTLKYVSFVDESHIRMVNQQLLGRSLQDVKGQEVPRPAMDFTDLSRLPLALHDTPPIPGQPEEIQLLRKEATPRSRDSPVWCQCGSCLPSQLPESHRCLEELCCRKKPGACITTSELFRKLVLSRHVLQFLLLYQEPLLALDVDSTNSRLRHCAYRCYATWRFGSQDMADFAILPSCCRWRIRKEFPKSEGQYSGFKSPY
Briefly: Antagonist activity at human P2X7R transfected in HEK293 cells assessed as inhibition of ATP-mediated calcium influx measured after 10 mins by YOPRO-1 dye uptake assay.

In experiment [2] the target is T2, P2X purinoceptor 4 (Homo sapiens, UniProt Q99571).
T2 sequence (Q99571 whole entry): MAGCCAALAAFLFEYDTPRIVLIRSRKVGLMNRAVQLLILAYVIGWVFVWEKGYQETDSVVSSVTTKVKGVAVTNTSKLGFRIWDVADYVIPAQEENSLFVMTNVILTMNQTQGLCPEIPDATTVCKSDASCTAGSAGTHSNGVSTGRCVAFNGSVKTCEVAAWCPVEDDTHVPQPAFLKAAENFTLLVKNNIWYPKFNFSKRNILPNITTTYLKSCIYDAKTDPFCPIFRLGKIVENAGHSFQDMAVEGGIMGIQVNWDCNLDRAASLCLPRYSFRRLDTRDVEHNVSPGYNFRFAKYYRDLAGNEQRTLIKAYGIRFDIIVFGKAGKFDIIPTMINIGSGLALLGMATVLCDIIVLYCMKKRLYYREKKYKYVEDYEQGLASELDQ
Put plainly: Antagonist activity at human P2X4R transfected in HEK293 cells assessed as inhibition of ATP-mediated calcium influx measured after 10 mins by YOPRO-1 dye uptake assay.

For experiment [3], the target named is T2, P2X purinoceptor 4. Briefly: Antagonist activity at human P2X4R transfected in 1321N1 cells assessed as inhibition of ATP-mediated calcium influx measured after 10 mins by Fura-2AM assay.

Experimental findings from ChEMBL document CHEMBL4414589, “Development of High-Throughput Fluorescent-Based Screens to Accelerate Discovery of P2X Inhibitors from Animal Venoms” (J Nat Prod, 2019) are described below.

As for `CC(C)c1cc(Br)c(NC(=O)Nc2cccnc2)c(Br)c1`, the IC50 result in experiment [1] is listed as “Not Active”. The same measure, in the same setting: the value for `Cc1ccc(S(=O)(=O)N2c3ccccc3Oc3ccccc32)cc1` was “Not Active”; that for `O=C1CN=C(c2cccc(Br)c2)c2oc3ccccc3c2N1` was “Not Active”. For `O=C(CC12CC3CC(CC(C3)C1)C2)Nc1cccc2nc(NCCNCCO)ccc12`, the IC50 entry in experiment [2] and in experiment [3] was “Not Active” throughout.
